Usually pIC50 stands for the IC50 on a negative log10 scale, so that one unit is a factor of ten. Lower therefore signals a high IC50.

For test [1], the target named is T1, Human MAT2A (Homo sapiens, UniProt P31153).
T1 construct: Human MAT2A: Cepter, amino acids 1-395 Clone ID 334, lot 00023-148; purchased Cepter clone ID 334, lot 00023-148
Kind of test: Phosphate Sensor Fluorescence Assay (Biologic Example A). Particulars: MAT2A inhibition, procedure of Biological Example A; 500 uM L-methionine, 500 uM ATP, 0.1% BGG. It counts as biochemical. How it is done: (§1) The ability of the compound of present disclosure to inhibit MAT2A enzyme was determined using a Phosphate Sensor Fluorescence Assay described below.
(§2) MAT2A enzyme is incubated with a test compound in DMSO or DMSO and its substrates (L-methionine and ATP) in a microtiter plate. The enzymatic reaction is stopped by the addition of Working Phosphate Sensor Mixture. The plate is analyzed for fluorescence at 450 nm. The high control (DMSO with enzyme and its substrates) gives high fluorescence which represents no inhibition of enzymatic activity while the low control (DMSO with MAT2A substrates and no enzyme) gives low fluorescence which represents full inhibition of enzymatic activity.
Human MAT2A: Cepter, amino acids 1-395
Assay Buffer: 50 mM Tris, pH 7.5/50 mM KCl/10 mM MgCl2/0.01% Brij-35/1 mM DTT/0.1% BGG/40 nM PNP/6 uM 7-MEG
MAT2A: 10 nM for Cepter clone ID 329, lot 00023-123 before the addition of Working Phosphate Sensor Mixture • 5 nM for Cepter clone ID 334, lot 00023-148 before the addition of Working Phosphate Sensor Mixture
(§3) L-methionine: 500 uM before the addition of Working Phosphate Sensor Mixture
(§4) ATP: 500 uM before the addition of Working Phosphate Sensor Mixture
(§5) For the assay, a mixture of 1 mM L-methionine/1 mM ATP (2× final pre-stopped concentration) in assay buffer; MAT2A (2× final pre-stopped concentration) in Assay Buffer and Working Phosphate Sensor Mixture (1.5 uM Phosphate Sensor/30 mM EDTA in Assay Buffer, which is 3× final concentrations) were prepared. Test compounds or DMSO were added to the appropriate well suing D300e digital dispenser. 5 μl/well of Assay Buffer was added to the wells corresponding to the negative control and 5 μl/well of MAT2A was added to all the wells except for those corresponding to the negative control. After incubating the plate at room temperature for 15 minutes, 5 μl/well of the 1 mM L-methionine/1 mM ATP mixture was added to all wells. The plate was centrifuged at 1000 rpm for 1 minute and then incubated at room temperature for 1 hour. 5 μl of the Working Phosphate Sensor Mixture was added to all wells and the plate was centrifuged at 1000 rpm for 1 minute. The plate was read for fluorescence at 450 nm after exciting at 430 nm.
(§6) Percent inhibition was calculated in Chemical and Biological Information System (CBIS), (ChemInnovation Software Inc.). Curves were fitted by CBIS as % inhibition vs. log [compound concentration] using a 4-parameter inhibition model.
(§7) Fit=(A+((B−A)/(1+((C/x)^D))))

The target in test [2] is T1, Human MAT2A. Kind of test: Phosphate Sensor Fluorescence Assay (Biologic Example B). It is filed as biochemical. Particulars: MAT2A inhibition, procedure of Biological Example B; 5.8 nM MAT2A, 500 uM L-methionine, 500 uM ATP, 0.01% BGG. How it is done:
as §1, §2
MAT2A: 5.8 nM MAT2A (1-395), Cepter, clone ID 334, lot 00023-148 before the addition of Working Phosphate Sensor Mixture
as §3, §4
as §5, with “(2X” for “(2×”, “3X” for “3×”, “using a Beckman Coulter Echo 550 acoustic liquid handler. 10 μL/well” for “suing D300e digital dispenser. 5 μl/well”, “10 μL/well” for “5 μl/well”, “10 μL” for “5 μl”, “nm on a Tecan Spark microplate reader.” for “nm.”
as §6, §7

Molecules are shown by their SMILES. pIC50: −log10 of the molar value.

T1 sequence (P31153 whole entry, the tested form may be a part): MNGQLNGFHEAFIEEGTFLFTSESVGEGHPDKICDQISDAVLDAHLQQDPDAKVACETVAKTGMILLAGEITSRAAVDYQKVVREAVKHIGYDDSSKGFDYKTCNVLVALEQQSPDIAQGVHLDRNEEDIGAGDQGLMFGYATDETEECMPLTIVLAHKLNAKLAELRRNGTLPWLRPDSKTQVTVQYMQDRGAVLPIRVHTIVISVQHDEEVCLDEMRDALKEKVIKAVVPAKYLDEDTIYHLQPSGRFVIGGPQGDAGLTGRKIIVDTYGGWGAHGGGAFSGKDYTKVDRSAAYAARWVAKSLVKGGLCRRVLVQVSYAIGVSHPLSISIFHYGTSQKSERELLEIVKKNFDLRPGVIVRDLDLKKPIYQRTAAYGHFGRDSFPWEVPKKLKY

In turn, `Nc1nc(=O)c(-c2ccccc2)c2cc(C(F)(F)F)ccn12` [Compound 1.001, 1-amino-4-phenyl-6-(trifluoromethyl)-3H-pyrido[1,2-c]pyrimidin-3-one] had a pIC50 on Human MAT2A [1] of 6.70 to 8.00.
`Cc1ccccc1-c1c(=O)nc(N)n2ccc(C(F)(F)F)cc12` [Compound 1.002, 1-amino-4-(o-tolyl)-6-(trifluoromethyl)-3H-pyrido[1,2-c]pyrimidin-3-one] showed a pIC50 against Human MAT2A [1] of 6.70 to 8.00.
`Nc1nc(=O)c(-c2ccccc2Cl)c2cc(C(F)(F)F)ccn12` [Compound 1.003, 1-amino-4-(2-chlorophenyl)-6-(trifluoromethyl)-3H-pyrido[1,2-c]pyrimidin-3-one]: the pIC50 at Human MAT2A [1] is 6.70 to 8.00.
On Human MAT2A [1], `COc1cc(C(F)(F)F)cc2c(-c3ccccc3C)c(=O)nc(N)n12` [Compound 1.004, 1-amino-8-methoxy-4-(o-tolyl)-6-(trifluoromethyl)-3H-pyrido[1,2-c]pyrimidin-3-one] gave a pIC50 of 6.30 to 6.70.
At Human MAT2A [2], `Nc1nc(=O)c(-c2cccnc2)c2cc(C(F)(F)F)ccn12` [Compound 1.005, 1-Amino-4-(pyridin-3-yl)-6-(trifluoromethyl)-3H-pyrido[1,2-c]pyrimidin-3-one] had a pIC50 of 6.70 to 8.00.
Still for that read-out and setting: to `Cn1nccc1-c1c(=O)nc(N)n2ccc(C(F)(F)F)cc12` [Compound 1.006, 1-Amino-4-(1-methyl-TH-pyrazol-5-yl)-6-(trifluoromethyl)-3H-pyrido[1,2-c]pyrimidin-3-one] belongs 6.70 to 8.00; to `Nc1nc(=O)c(-c2ccccc2)c2cc(Br)ccn12` [Compound 1.007, 1-Amino-6-bromo-4-phenyl-3H-pyrido[1,2-c]pyrimidin-3-one], 6.70 to 8.00; to `Cc1ccccc1-c1c(=O)nc(N)n2ccc(Br)cc12` [Compound 1.008, 1-Amino-6-bromo-4-(o-tolyl)-3H-pyrido[1,2-c]pyrimidin-3-one], 6.70 to 8.00.
`CC(=O)Nc1nc(=O)c(-c2ccccc2)c2cc(C(F)(F)F)ccn12` [Compound 1.009, N-(3-oxo-4-phenyl-6-(trifluoromethyl)-3H-pyrido[1,2-c]pyrimidin-1-yl)acetamide] had a pIC50 on Human MAT2A [2] of 5.00 to 6.00.
The compound `CCCNc1nc(=O)c(-c2ccccc2)c2cc(C(F)(F)F)ccn12` [Compound 1.010, 4-Phenyl-1-(propylamino)-6-(trifluoromethyl)-3H-pyrido[1,2-c]pyrimidin-3-one] had a pIC50 against Human MAT2A [2] of 6.70 to 8.00.
`CNc1nc(=O)c(-c2ccccc2)c2cc(C(F)(F)F)ccn12` [Compound 1.011, 1-(Methylamino)-4-phenyl-6-(trifluoromethyl)-3H-pyrido[1,2-c]pyrimidin-3-one] gave a pIC50 against Human MAT2A [2] of 6.70 to 8.00.

The values above are taken from patent publication US20230257377A1, “2-AMINOQUINAZOLINONE DERIVATIVES AS METHIONINE ADENOSYLTRANSFERASE 2A INHIBITORS” (IDEAYA BIOSCIENCES, INC., priority 2020, published 2023).
